Read-outs that look alike come from different tables or passages of the source.
Columns and labels:
Ascorbic acid oxidase = molecular target: T1, Ascorbic acid oxidase (Cucurbita maxima, UniProt P24792); details: R-1 stored 24 hours at room temperature; FIG. 4
T1 sequence (P24792 31-579): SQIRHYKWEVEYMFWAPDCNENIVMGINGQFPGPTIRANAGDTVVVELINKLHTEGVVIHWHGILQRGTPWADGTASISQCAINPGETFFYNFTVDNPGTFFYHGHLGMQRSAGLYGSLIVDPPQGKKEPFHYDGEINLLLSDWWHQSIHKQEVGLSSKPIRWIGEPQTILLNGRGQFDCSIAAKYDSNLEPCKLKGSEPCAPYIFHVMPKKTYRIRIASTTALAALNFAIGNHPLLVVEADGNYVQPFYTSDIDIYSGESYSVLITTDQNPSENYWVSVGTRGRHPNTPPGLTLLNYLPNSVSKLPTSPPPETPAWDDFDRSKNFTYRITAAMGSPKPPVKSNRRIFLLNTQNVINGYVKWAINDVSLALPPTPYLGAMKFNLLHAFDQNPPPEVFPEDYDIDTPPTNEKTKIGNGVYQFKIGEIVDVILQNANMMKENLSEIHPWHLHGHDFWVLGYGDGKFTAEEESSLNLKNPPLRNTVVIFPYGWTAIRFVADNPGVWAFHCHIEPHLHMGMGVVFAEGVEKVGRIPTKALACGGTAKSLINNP
Protocol: An ascorbic acid-addition substrate solution was prepared by adding one volume of ascorbic acid (1 g/dl) (manufactured by Kokusan Chemical Co., Ltd.) to nine volume of human pool blood serum. A solution prepared by adding distilled water instead of ascorbic acid was used as a control substrate solution.
8 μl of the control substrate solution or ascorbic acid-addition substrate solution was added to 240 μl of R-1 incubated at 37° C. The reaction was initiated at 37° C. and exactly 5 minutes thereafter 80 μl of R-2 was added. Absorbance at 555 nm was measured before the addition of R-2 and five minutes after the addition of R-2. ΔA0 was calculated by subtracting the absorbance change obtained from a blank sample using distilled water instead of the substrate solution from the absorbance change obtained from the absorbance measurement on the control substrate solution and ascorbic acid-addition substrate solution. The same reaction solution R-1 was stored at room temperature for 24 hours, and the absorbance was measured in the same manner to calculate ΔA24. The ratio of ΔA0 and ΔA24 obtained from the ascorbic acid-addition substrate solution was calculated assuming the absorbance change obtained from the control substrate solution as 100.

[1] = test system: heat-stable type ascorbic acid oxidase (ASO-312); test: Effect of buffer agent types on stabilization of ascorbic acid oxidase ASO-312 in the presence of protease; format: biochemical; details: pH 8.0, stored two days at room temperature
Protocol: 1 ml of the above mixed reaction reagent is placed in a small test tube and preheated at 30° C. for five minutes, then 0.10 ml of an appropriately diluted enzyme solution is added. The mixture is stirred to initiate the reaction. After the reaction for exactly 5 minutes, 3.0 ml of 0.2 N hydrochloric acid aqueous solution is added to terminate the reaction. Absorbance (As) at a wavelength of 245 nm is measured. For the blank test, 1 ml of the above reaction solution is placed in a small test tube and preheated at 30° C. for five minutes, then 3.0 ml of 0.2 N hydrochloric acid aqueous solution is added to terminate the reaction. 0.10 ml of an appropriately diluted enzyme solution is added and the mixture is stirred to measure the absorbance (Ab) at a wavelength of 245 nm. The enzyme activity is determined from the difference (Ab-As) between the absorbance (As) after the enzyme reaction and the blank test absorbance (Ab). The amount of enzyme oxidizing 1 μmol of ascorbic acid into dehydroascorbic acid in one minute at 30° C. is defined as 1 U. The calculation formula is shown below. Activity (U/ml)=[(Ab−As)/10.0]×[⅕]×[4.10/0.10]×[1/B] • 10.0: Molecular absorbance coefficient (mM) of ascorbic acid at 245 nm under the conditions of pH 1.0. • 5: Reaction time (min) • 4.10: Total reaction solution (ml) • 0.10: Amount of enzyme sample solution used for the reaction • B: Dilution magnification of the enzyme solution
The above reaction solutions were prepared using various buffer agents. A portion of each solution was used as a control after measuring the ascorbic acid oxidase activity. The above-described <<Method for Measuring the Activity of Ascorbic Acid Oxidase (ASOx)>> was employed for the activity measurement. The remaining portion of reaction solutions was stored for two days at room temperature, and the activity was measured in the same manner. The ratio of the activity after storage for two days at room temperature to the activity of the control was calculated to compare the stability of ascorbic acid oxidases.

[2] = molecular target: T2, Ascorbic acid oxidase (ASO-311) (Cucurbita maxima, UniProt P24792); details: pH 8.0, stored two days at room temperature
T2 sequence (P24792 31-579): T1 sequence (P24792 31-579)

Protease type-XXIV [3] = test: Screening of globulin component-selective protease inhibitors (HSA substrate with/without γ-globulin); format: biochemical, Bacillus; details: control 23.8
Description: Using protease type-XXIV (manufactured by Sigma-Aldrich Co.) having high reactivity with the HSA substrate solution, components that decrease the protease reaction with the above globulin substrate solutions were screened based on the HSA substrate solution.
In the R-1 proteolytic reagent, as the deoxycholic acid amide, bisgluconamidopropyldeoxycholamide was used; as the cholic acid amide, 3-[(3-cholamidopropyl)dimethvlammonio]propane sulfonic acid, 3-[(3-cholamidopropyl)dimethylammonio]-2-hydroxypropane sulfonic acid, or bisgluconamidopropylcholamide was used; as the quaternary ammonium salt, benzyltriethylan chloride or benzyltri-n-butylammonium chloride was used; and as quatemary ammonium salt-type cationic surfactant, lauryltrimethylammonium chloride or lauryldimethylamine oxide was used.
• 1. HSA substrate solution: Albumin Human: 40 mg/ml, GA %=10.5% [manufactured by Wako Pure Chemical Industries, Ltd., the albumin concentration in the substrate solution was assayed using an albumin assay kit (albumin II-HA Test Wako; manufactured by Wako Pure Chemical Industries, Ltd.). GA % was assayed using a glycated albumin analyzer (GAA-2000, manufactured by ARKRAY, Inc.). • 2. γ-globulin addition substrate solution, 17.0 mg/ml of γ-globulin [γ-Globulins Human (manufactured by Sigma-Aldrich Co.), Fructosamine value=34 μM] was added to the above HSA substrate solution. <Reaction Procedure>
Absorbances at a wavelength of 546 nm were measured before and after the addition of R-2. The difference of the two measurements was regarded as the absorbance change. The same procedure was conducted using distilled water instead of the substrate to prepare a blank sample. In addition, a reaction solution without the addition of the globulin-selective protease inhibitor was used as a control.
ΔA (HSA) was calculated by subtracting the absorbance change of the blank sample from the absorbance change obtained for the HSA substrate solution. ΔA(+γ-globulin) was calculated by subtracting the absorbance change of the blank sample from the absorbance change obtained for the substrate solution to which γ-globulin was added. Effect of γ-globulin addition=(ΔA(+γ-globulin)−ΔA(HSA))/ΔA(HSA)×100(%)

Protease type-XXIV [4] = test: Screening of globulin component-selective protease inhibitors using Hb substrate solution; format: biochemical, Bacillus; details: Hb substrate solution instead of HSA
Protocol: The same measurement was conducted using the Hb substrate solution instead of the HSA substrate solution, provided that when the Hb substrate solution was used, proteins were removed using trichloroacetic acid after the reaction with R-1, then the residue was neutralized and R-2 was added.

Protease type-XXIV [5] = format: biochemical, Bacillus
Protocol: 5 g/dl HSA (LOT38H7601; manufactured by Sigma-Aldrich Co.)
(§1) 8 μl of a sample was added to 240 μl of the proteolytic reagent incubated at 37° C. […] A relative sensitivity for the experiment using the reagent containing a stabilizer to the experiment using the reagent not containing a stabilizer was calculated assuming that ΔA0obtained using the reagent not containing a stabilizer and used without storing is 100%.

[6] = FOD enzyme activity / substrate specificity on glycated lysine; format: biochemical; details: glycated lysine / glycated valine
Protocol: 164 strains of mutant colonies obtained in Example 15 were cultured for 16 hours at 30° C. in 1.5 ml of a 3.7% BHI liquid medium (manufactured by DIFCO Co.) containing 50 μg/ml of ampicillin and 1 mM of IPTG. 1 ml of the culture broth was centrifuged (15,000 G for one minute at 4° C.) to collect cells. 200 μl of 10 mM Tris-HCl buffer solution (pH 8.0) was added to the collected cells. After crushing the cells using an ultrasonic breaker, the mixture was centrifuged (14,000 G for five minutes at 4° C.) to obtain a cell extract as a supernatant.
The glycated amino acid substrate specificity of FOD-mutated recombinant contained in the cell extract prepared in Example 16 was measured using the above-mentioned FOD enzyme activity measuring method.
Synthesis of an oligonucleotide having the base sequence of 1-27 in the sequence table Sequence ID No. 7 was consigned to an outside source (BEX Co., Ltd.). The oligonucleotide was subjected to the site-directed mutagenesis using the Mutan-K kit (manufactured by Takara Shuzo Co., Ltd.) according to the manual attached to the kit. The mutant gene obtained was incorporated again into the expression plasmid pTV119N, introduced into Escherichia coli host, and cultured at 30° C. for 16 hours in a 3.7% BHI liquid medium containing 50 μg/ml of ampicillin and 1 mM of IPTG to produce mutant FOD protein.

ASOx = test: Storage of ASOx with protease in HEPES buffer solution pH 8.0 (inventors' investigation); format: biochemical; details: pH 8.0, protease and ASOx present
R-FOD-II = test: Stabilization of enzyme reacting at least with glycated amino acid; format: biochemical; details: for stabilization effect on glycated amino acid assay reagent (relative sensitivity): stored at 37° C. for two days, without stabilizer 30%, FIG. 6
Protocol: as §1, with “ΔA0 obtained” for “ΔA0obtained”

[7] = stored at 37° C. for 24 hours, without stabilizer 60%, FIG. 5
[8] = stored in a liquid state in a refrigerator

O=S(=O)(O)CC(O)CN1CCN(CCO)CC1 (stereo not shown) [HEPPSO]
ascorbic acid eliminating capability after storing (Ascorbic acid oxidase): almost no ascorbic acid eliminating capability | Relative activity (%) ASO-312 ([1]; Pronase): 34% | Relative activity (%) ASO-312 ([1]; Protease type XXIV): 22% | Relative activity (%) ASO-311 ([2]; Pronase): 14% | Relative activity (%) ASO-311 ([2]; Protease type XXIV): 37%

Concanavalin A
Effect of γ-globulin (%) (Protease type-XXIV [3]; additive concentration 0.21 mg/ml): 14.9% | effect of inhibiting a protease reaction with globulin (Protease type-XXIV [4]): effect of inhibiting a protease reaction with globulin

C[S+](C)[O-] [DMSO, Dimethylsulfoxide]
decrease in performance of proteolytic reagent (Protease type-XXIV [5]; storage for 4 weeks at 37° C.): almost no decrease in performance | decrease in performance of proteolytic reagent (Protease type-XXIV [5]; stored at 37° C. for 24 hours, FIG. 5): almost no decrease in performance | stabilization effect on proteolytic reagent (relative sensitivity) (Protease type-XXIV [5]; [7]): stabilization effect | storage stability effect (Protease type-XXIV [5]; [8]): one year or more

C[C@@H](O)[C@H](N)C(=O)O [Reactive 327th amino acid Threonine]
Reactivity ratio, glycated lysine / glycated valine [6]: 927

O=S(=O)(O)CCN1CCN(CCO)CC1 [HEPES]
ascorbic acid eliminating capability after storing (Ascorbic acid oxidase): almost no ascorbic acid eliminating capability | Relative activity (%) ASO-312 ([1]; Pronase): 37% | Relative activity (%) ASO-312 ([1]; Protease type XXIV): 34% | Relative activity (%) ASO-311 ([2]; Pronase): 17% | Relative activity (%) ASO-311 ([2]; Protease type XXIV): 31% | ascorbic acid treating capability after storage (ASOx; one day at 37° C.): lost almost entirely | ascorbic acid treating capability after storage (ASOx; two weeks at 10° C.): lost almost entirely

O=P(O)(O)O [Phosphoric acid, phosphoric acid]
Relative activity (%) ASO-312 ([1]; Pronase): 108% | Relative activity (%) ASO-312 ([1]; Protease type XXIV): 86% | Relative activity (%) ASO-311 ([2]; Pronase): 88% | Relative activity (%) ASO-311 ([2]; Protease type XXIV): 77%

Triethanolamine lauryl sulfate [TEALS]
stabilization effect on proteolytic reagent (relative sensitivity) (Protease type-XXIV [5]; [7]): stabilization effect

C[C@H](CCC(=O)NCCC[N+](C)(C)CCCS(=O)(=O)[O-])[C@H]1CC[C@H]2[C@@H]3[C@H](O)C[C@@H]4C[C@H](O)CC[C@]4(C)[C@H]3C[C@H](O)[C@]12C [3-[(3-cholamidopropyl)dimethylammonio]propane sulfonic acid]
Effect of γ-globulin (%) (Protease type-XXIV [3]; additive concentration 1.0%): 17.9%

[Cl-].[Na+] [sodium chloride, Sodium chloride]
stabilization effect on proteolytic reagent (relative sensitivity) (Protease type-XXIV [5]; [7]): stabilization effect

O=S(=O)(O)CCCN1CCN(CCO)CC1 [EPPS]
ascorbic acid eliminating capability after storing (Ascorbic acid oxidase): almost no ascorbic acid eliminating capability | Relative activity (%) ASO-312 ([1]; Pronase): 31% | Relative activity (%) ASO-312 ([1]; Protease type XXIV): 30% | Relative activity (%) ASO-311 ([2]; Pronase): 13% | Relative activity (%) ASO-311 ([2]; Protease type XXIV): 35%

trishydroxymethylaminomethane
ascorbic acid eliminating capability after storing (Ascorbic acid oxidase): no change | Relative activity (%) ASO-312 ([1]; Pronase): 62% | Relative activity (%) ASO-312 ([1]; Protease type XXIV): 44% | Relative activity (%) ASO-311 ([2]; Pronase): 55% | Relative activity (%) ASO-311 ([2]; Protease type XXIV): 52%

O=S(=O)(O)CC(O)CN1CCN(CC(O)CS(=O)(=O)O)CC1 (stereo not shown) [POPSO]
ascorbic acid eliminating capability after storing (Ascorbic acid oxidase): no change | Relative activity (%) ASO-312 ([1]; Pronase): 80% | Relative activity (%) ASO-312 ([1]; Protease type XXIV): 56% | Relative activity (%) ASO-311 ([2]; Pronase): 80% | Relative activity (%) ASO-311 ([2]; Protease type XXIV): 62%

CCO [EtOH, Ethanol]
stabilization effect on proteolytic reagent (relative sensitivity) (Protease type-XXIV [5]): stabilization effect

Alkylbenzyldimethylammonium chloride
Effect of γ-globulin (%) (Protease type-XXIV [3]; additive concentration 1.0%): 23.2%

[Ca+2].[Cl-].[Cl-] [calcium chloride, Calcium chloride]
decrease in performance of proteolytic reagent (Protease type-XXIV [5]): almost no decrease in performance | stabilization effect on proteolytic reagent (relative sensitivity) (Protease type-XXIV [5]): stabilization effect | storage stability effect (Protease type-XXIV [5]): one year or more | stabilization effect on glycated amino acid assay reagent (relative sensitivity) (R-FOD-II): stabilization effect

N=C(N)NCCC[C@H](N)C(=O)O [Reactive 327th amino acid Arginine]
Reactivity ratio, glycated lysine / glycated valine [6]: 440

CCCCCCCCCCCC[N+](C)(C)[O-] [Lauryldimethylamine oxide]
Effect of γ-globulin (%) (Protease type-XXIV [3]; additive concentration 1.0%): 17.8%

CCCCCCCCO[C@@H]1O[C@H](CO)[C@@H](O)[C@H](O)[C@H]1O [Octylglucoside]
Effect of γ-globulin (%) (Protease type-XXIV [3]; additive concentration 1.0%): 18.5%

NCC(=O)O [glycine, Glycine]
Kcat Reactivity ratio (a)/(b) [6]: 365 | decrease in performance of glycated amino acid assay reagent (R-FOD-II; storage for four weeks at 37° C.): almost no decrease in performance | stabilization effect on glycated amino acid assay reagent (relative sensitivity) (R-FOD-II): stabilization effect | storage stability effect (R-FOD-II; [8]): one or more years

C[N+](C)(C)CC(=O)O [Betaine]
Effect of γ-globulin (%) (Protease type-XXIV [3]; additive concentration 0.10%): 7.6% | effect of inhibiting a protease reaction with globulin (Protease type-XXIV [4]): effect of inhibiting a protease reaction with globulin

CCCCCCCCCCCC[N+](C)(C)C.[Cl-] [Lauryltrimethylammonium chloride]
Effect of γ-globulin (%) (Protease type-XXIV [3]; additive concentration 1.0%): 16.7%

CC[N+](CC)(CC)Cc1ccccc1.[Br-] [Benzyltriethylammonium bromide]
Effect of γ-globulin (%) (Protease type-XXIV [3]; additive concentration 1.0%): 22.9%
